Reference: patent US12630534B2 (TAKEDA PHARMACEUTICAL COMPANY LIMITED, priority 2020, dated 2026)

Target: T1, human GPR139 (Homo sapiens, UniProt Q6DWJ6)
T1 construct: expressed in transfected cells; host or cells: CHO-TREx (Life Technologies) cells, expression induced with doxycycline
T1 sequence (Q6DWJ6 1-353): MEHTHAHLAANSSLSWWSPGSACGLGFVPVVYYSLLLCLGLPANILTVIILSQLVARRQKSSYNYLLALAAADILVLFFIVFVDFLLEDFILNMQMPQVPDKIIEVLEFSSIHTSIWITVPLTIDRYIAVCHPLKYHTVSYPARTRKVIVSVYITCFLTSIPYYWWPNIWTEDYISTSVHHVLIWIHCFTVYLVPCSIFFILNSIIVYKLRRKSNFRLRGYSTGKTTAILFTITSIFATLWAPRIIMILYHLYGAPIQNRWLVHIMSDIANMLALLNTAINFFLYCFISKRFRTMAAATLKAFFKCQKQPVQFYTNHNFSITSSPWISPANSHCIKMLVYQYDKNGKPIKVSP
Experiment: Inhibition rate of the amount of IP1 in GPR139-expressed CHO cells (inverse agonist assay, Test Example 2)
Type: cell-based
Settings: CHO, relative value, inhibition rate of Example Compound 2 in Test Example 1 defined as 100%
Summary of the method: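 IP1 accumulation read by IP-One HTRF after 40 min compound exposure at 37° C in stimulation buffer, 2000 cells/well, GPR139 expression induced the day before with doxycycline. Results given as relative inhibition rate, normalised to a reference compound set at […].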

inhibition at 30 µM [%] | SMILES
101 | CCn1cc(Cn2cc(C)n(-c3cc(C(F)(F)F)cc(NCC4(F)CCC4)n3)c2=O)cn1 [Example 110, 1-[(1-Ethyl-1-pyrazole-4-yl)methyl]-3-[6={[(1-fluorocyclobutyl)methyl]amino}-4-(trifluoromethyl)pyridine-2-yl]-4-methyl-1,3-dihydro-2H-imidazole-2-one]
105 | CCn1cc(Cn2cc(C)n(-c3cc(C(F)(F)F)cc(N4CCOC(F)(F)C4)n3)c2=O)cn1 [Example 111, 3-[6-(2,2-difluoromorpholin-4-yl)-4-(trifluoromethyl)pyridin-2-yl]-1-[(1-ethyl-1H-pyrazol-4-yl)methyl]-4-methyl-1,3-dihydro-2H-imidazol-2-one]
100 | CCn1cc(Cn2ccn(-c3nc(N4CCOC(C)(C)C4)cc(C(F)(F)F)c3F)c2=O)cn1 [Example 112, 1-[6-(2,2-dimethylmorpholin-4-yl)-3-fluoro-4-(trifluoromethyl)pyridin-2-yl]-3-[(1-ethyl-1H-pyrazol-4-yl)methyl]-1,3-dihydro-2H-imidazol-2-one]
103 | CCn1cc(Cn2ccn(-c3cc(N(C)C4CCOCC4)cc(C(C)(C)O)c3F)c2=O)cn1 [Example 113, 1-[(1-ethyl-1H-pyrazol-4-yl)methyl]-3-{2-fluoro-3-(2-hydroxypropan-2-yl)-5-[methyl(oxan-4-yl)amino]phenyl}-1,3-dihydro-2H-imidazol-2-one]
103 | CCn1cc(Cn2c(C)c(C)n(-c3cc(C(F)(F)F)cc(OC[C@H]4CCCO4)n3)c2=O)cn1 [Example 114, 1-[(1-ethyl-1H-pyrazol-4-yl)methyl]-4,5-dimethyl-3-[6-{[(2R)-oxolan-2-yl]methoxy}-4-(trifluoromethyl)pyridin-2-yl]-1,3-dihydro-2H-imidazol-2-one]
103 | CCn1cc(Cn2c(C)c(C)n(-c3cc(C(F)(F)F)cc(OC[C@@H]4CCCO4)n3)c2=O)cn1 [Example 115, 1-[(1-ethyl-1H-pyrazol-4-yl)methyl]-4,5-dimethyl-3-[6-{[(2S)-oxolan-2-yl]methoxy}-4-(trifluoromethyl)pyridin-2-yl]-1,3-dihydro-2H-imidazol-2-one]
101 | CCn1cc(Cn2ccn(-c3cc(OC4CCOCC4)cc(C(F)(F)F)c3F)c2=O)cn1 [Example 116, 1-[(1-ethyl-1H-pyrazol-4-yl)methyl]-3-{2-fluoro-5-[(oxan-4-yl)oxy]-3-(trifluoromethyl)phenyl}-1,3-dihydro-2H-imidazol-2-one]
100 | CCn1cc(Cn2c(C)cn(-c3cc(OC4CCOCC4)cc(C(F)(F)F)c3F)c2=O)cn1 [Example 117, 3-[(1-ethyl-1H-pyrazol-4-yl)methyl]-1-{2-fluoro-5-[(oxan-4-yl)oxy]-3-(trifluoromethyl)phenyl}-4-methyl-1,3-dihydro-2H-imidazol-2-one]
100 | CCn1cc(Cn2ccn(-c3cc(OC[C@@H]4CCCO4)cc(C(F)(F)F)c3F)c2=O)cn1 [Example 118, 1-[(1-ethyl-1H-pyrazol-4-yl)methyl]-3-[2-fluoro-5-{[(2S)-oxolan-2-yl]methoxy}-3-(trifluoromethyl)phenyl]-1,3-dihydro-2H-imidazol-2-one]
101 | Cc1cn(-c2cc(OC3CCOCC3)cc(C(F)(F)F)c2F)c(=O)n1Cc1cnn(C(C)C)c1 [Example 119, 1-{2-fluoro-5-[(oxan-4-yl)oxy]-3-(trifluoromethyl)phenyl}-4-methyl-3-{[1-(propan-2-yl)-1H-pyrazol-4-yl]methyl}-1,3-dihydro-2H-imidazol-2-one]
102 | CCn1cc(Cn2c(C)cn(-c3nc(N4CCOC(C)(C)C4)cc(C(F)(F)F)c3C)c2=O)cn1 [Example 120, 1-[6-(2,2-dimethylmorpholin-4-yl)-3-methyl-4-(trifluoromethyl)pyridin-2-yl]-3-[(1-ethyl-1H-pyrazol-4-yl)methyl]-4-methyl-1,3-dihydro-2H-imidazol-2-one]
101 | CCn1cc(Cn2ccn(-c3nc(NCC4(F)CCC4)cc(C(F)(F)F)c3F)c2=O)cn1 [Example 121, 1-[(1-ethyl-1H-pyrazol-4-yl)methyl]-3-[3-fluoro-6-{[(1-fluorocyclobutyl)methyl]amino}-4-(trifluoromethyl)pyridin-2-yl]-1,3-dihydro-2H-imidazol-2-one]
103 | CCn1cc(Cn2ccn(-c3cc(N(C)C4CCOCC4)cc(C(C)(C)F)c3F)c2=O)cn1 [Example 122, 1-[(1-ethyl-1H-pyrazol-4-yl)methyl]-3-{2-fluoro-3-(2-fluoropropan-2-yl)-5-[methyl(oxan-4-yl)amino]phenyl}-1,3-dihydro-2H-imidazol-2-one]
102 | CCn1cc(Cn2ccn(-c3nc(N4CCOC(F)(F)C4)cc(C(F)(F)F)c3F)c2=O)cn1 [Example 123, 1-[6-(2,2-difluoromorpholin-4-yl)-3-fluoro-4-(trifluoromethyl)pyridin-2-yl]-3-[(1-ethyl-1H-pyrazol-4-yl)methyl]-1,3-dihydro-2H-imidazol-2-one]
103 | CCn1cc(Cn2cc(C)n(-c3nc(N4CCO[C@H](C)C4)cc(C(F)(F)F)n3)c2=O)cn1 [Example 124, 1-[(1-ethyl-1H-pyrazol-4-yl)methyl]-4-methyl-3-{4-[(2R)-2-methylmorpholin-4-yl]-6-(trifluoromethyl)pyrimidin-2-yl}-1,3-dihydro-2H-imidazol-2-one]
101 | CCn1cc(Cn2cc(C)n(-c3cc(C(F)(F)F)cc(N4CCOC(C)(C)C4)n3)c2=O)cn1 [Example 125, 3-[6-(2,2-dimethylmorpholin-4-yl)-4-(trifluoromethyl)pyridin-2-yl]-1-[(1-ethyl-1H-pyrazol-4-yl)methyl]-4-methyl-1,3-dihydro-2H-imidazol-2-one]
100 | Cc1cn(Cc2cnn(C(C)C)c2)c(=O)n1-c1cc(C2CC2)cc(N2CCO[C@H](C)C2)n1 [Example 126, 3-{4-cyclopropyl-6-[(2R)-2-methylmorpholin-4-yl]pyridin-2-yl}-4-methyl-1-{[1-(propan-2-yl)-1H-pyrazol-4-yl]methyl}-1,3-dihydro-2H-imidazol-2-one]
99 | CCn1cc(Cn2c(C(F)(F)F)cn(-c3nc(N4CCO[C@H](C)C4)cc(C(F)(F)F)c3F)c2=O)cn1 [Example 127, 3-[(1-Ethyl-1H-pyrazole-4-yl)methyl]-1-{3 fluoro-6-[(2R)-2-methylmorpholine-4-yl]-4-(trifluoromethyl)pyridine-2-yl}-4-(trifluoromethyl)-1,3-dihydro-2H-imidazole-2-one]
101 | Cc1cn(Cc2cnn(C(C)C)c2)c(=O)n1-c1cc(C(F)(F)F)cc(N(C)C2CCOCC2)n1 [Example 128, 4-methyl-3-{6-[methyl(oxan-4-yl)amino]-4-(trifluoromethyl)pyridin-2-yl}-1-{[1-(propan-2-yl)-1H-pyrazol-4-yl]methyl}-1,3-dihydro-2H-imidazol-2-one]
100 | Cc1cn(-c2cc(C(F)(F)F)cc(N3CCO[C@H](C)C3)n2)c(=O)n1Cc1cnn(C(C)C)c1 [Example 129, 4-methyl-1-{6-[(2R)-2-methylmorpholin-4-yl]-4-(trifluoromethyl)pyridin-2-yl}-3-{[1-(propan-2-yl)-1H-pyrazol-4-yl]methyl}-1,3-dihydro-2H-imidazol-2-one]
